# Experimental data published in patent US6818739B2, “Somatostatins” (NDSU Research Foundation, priority 1999, dated 2004).
# Ends that are not written are not given here.
# Columns and labels:
# [1] = system: rainbow trout; conditions: in rainbow trout; Eilertson et al. 1993; cited from earlier work
# [2] = system: goldfish pituitary fragments; conditions: goldfish pituitary fragments in vitro; Marchant et al. 1989; cited from earlier work
# [3] = target: T1, human somatostatin receptor subtype 1 (Homo sapiens, UniProt P30872); assay: Radio-receptor assay: competitive binding of somatostatins to cloned somatostatin receptor; conditions: microsomes from COS-7 cells transiently expressing the human SS type 1 receptor; compared with mammalian SS-14 and mammalian SS-28; FIG. 8
# T1 construct: expressed in transfected cells; host or cells: COS-7 cells, transient transfection with pCMV6b expression vector; microsomal membranes
# Protocol: Somatostatin receptor cDNA was cloned into an expression vector, transfected into a eukaryotic cell line, and expressed as a peptide on the cell's surface to characterized the binding properties of the receptor for various somatostatin ligands.
# Human somatostatin receptor subtype I cDNA was graciously obtained from Dr. Graeme Bell at the University of Chicago. Clones were prepared substantially as described in Yamada et al., Proc. Natl. Acad. Sci. USA, 89, 251-255 (1992). Briefly, a cDNA library was created by inserting total cDNA into a cloning vector. Clones containing the cDNA inserts were digested with restriction endonuclease Bg1II and subsequently subcloned in the pCMV6b expression vector (Stratagene Zap Express cDNA Synthesis Kit, La Jolla, Calif.). The resulting expression vector containing the cloned somatostatin receptor was transfected into COS-7 (American Tissue Culture Collection, Manassas, Va.) cells for peptide expression.
# Twenty-four hours after splitting cells (e.g., COS-7) into new T-75 culture flasks (Nalgene, Rochester, N.Y.), the cells were washed with phosphate-buffered saline (PBS) and Tris-buffered saline-dextrose (TBS-D) solutions. […]
# All tubes were incubated for 30-60 minutes at 37° C. while shaking. […] The resulting pellets were counted in a gamma counter to determine the binding properties of the various ligands to the somatostatin receptor.
# [4] = target: T2, cloned human somatostatin receptor subtype 1 (human, UniProt P30872 1-391); assay: radio-receptor competition assay, displacement of 125I-[Tyr1]-SS-14 from COS-7 microsomal membranes
# T2 construct: whole, on cells; Transiently expressed in COS-7 cells; The assay used microsomal membrane preparations of these cells, not intact cells; also called human SS type 1 receptor; human somatostatin receptor type 1
# T2 sequence (P30872 whole entry): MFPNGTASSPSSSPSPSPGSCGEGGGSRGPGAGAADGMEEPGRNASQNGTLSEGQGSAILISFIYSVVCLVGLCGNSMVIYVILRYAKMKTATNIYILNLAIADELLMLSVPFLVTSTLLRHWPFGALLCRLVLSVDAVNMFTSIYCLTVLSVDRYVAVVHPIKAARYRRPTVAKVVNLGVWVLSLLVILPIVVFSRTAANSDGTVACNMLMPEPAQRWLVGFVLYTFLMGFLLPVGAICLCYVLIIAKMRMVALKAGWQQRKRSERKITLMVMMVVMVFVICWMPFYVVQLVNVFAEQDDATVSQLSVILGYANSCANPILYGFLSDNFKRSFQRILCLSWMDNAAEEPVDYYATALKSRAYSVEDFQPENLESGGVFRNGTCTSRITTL
# Protocol: Briefly, cell membranes, 25–1000 µg, were added to two sets of tubes labeled for total and non-specific binding (in triplicate) containing the following reagents in a final volume of 300 µl.
# All tubes were incubated for 30–60 minutes at 37° C. while shaking. Reactions were stopped by adding 1 ml of ice-cold assay buffer and centrifuged at 20,000×g for 15 minutes. The supernatant is aspirated off. The resulting pellets were washed once with ice-cold assay buffer and centrifuged again at 20,000×g for 15 minutes. Again, the supernatant was aspirated off. The resulting pellets were counted in a gamma counter to determine the binding properties of the various ligands to the somatostatin receptor.
# T1 sequence (P30872 whole entry): as above
Molecule,inhibition of insulin [1],ability to inhibit the release of growth hormone [2],affinity of the human somatostatin receptor type 1 for the ligand (inhibition of binding of 125I-[Tyr1]-SS-14) [3],binding result [4]
Ala-Gly-Cys-Lys-Asn-Phe-Phe-Trp-Lys-Thr-Phe-Thr-Ser-Cys [SS-14],did not,equipotent,,
Ser-Ala-Asn-Ser-Asn-Pro-Ala-Met-Ala-Pro-Arg-Glu-Arg-Lys-Ala-Gly-Cys-Lys-Asn-Phe-Phe-Trp-Lys-Thr-Phe-Thr-Ser-Cys (SANSNPAMAPRERKAGCKNFFWKTFTSC; listed as Homo sapiens) [SS-28],,equipotent,,
"salmonid SS-25: 25 amino acid PPSS-II″ proprotein containing [Tyr7, Gly10]-SS-14 at its C-terminus; synthetic (SVDNLPPRERKAGCKNFYWKGFTSC; ends and bridges not checked; cysteine pairing not given here)",inhibited insulin,no effect,greater affinity,
SANSNPAMAPRERKAGCKNFFWKTFTSC [mammalian SS-28],,,,binds
